Results published in publication PMC8584730, “Bacillus subtilis ANSB168 Producing D-alanyl-D-alanine Carboxypeptidase Could Alleviate the Immune Injury and Inflammation Induced by Ochratoxin A” (International Journal of Molecular Sciences, 2021).

What was measured:
[1] = target: T1, DacA (Bacillus subtilis, UniProt P08750); assay: HPLC-fluorescence of OTA hydrolysis; type: biochemical; conditions: 37 °C, optimal pH 7.0; amide bond hydrolysis to ochratoxin alpha
T1 construct: mature form without signal peptide (forward primer encodes Met-Ala-Ser-Asp)
T1 sequence (P08750 32-443): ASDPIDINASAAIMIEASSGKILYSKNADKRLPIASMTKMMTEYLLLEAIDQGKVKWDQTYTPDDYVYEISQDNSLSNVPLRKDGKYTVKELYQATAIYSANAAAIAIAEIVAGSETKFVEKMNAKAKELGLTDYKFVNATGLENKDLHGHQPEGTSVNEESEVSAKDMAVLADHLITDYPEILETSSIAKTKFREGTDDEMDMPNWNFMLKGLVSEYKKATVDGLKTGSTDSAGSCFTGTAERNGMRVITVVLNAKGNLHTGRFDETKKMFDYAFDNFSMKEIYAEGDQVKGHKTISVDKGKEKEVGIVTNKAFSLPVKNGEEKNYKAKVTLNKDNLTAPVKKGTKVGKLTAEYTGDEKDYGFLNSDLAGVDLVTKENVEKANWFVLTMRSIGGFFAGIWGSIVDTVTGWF

[2] = target: T2, DacB (Bacillus subtilis, UniProt P35150); assay: HPLC-fluorescence of OTA hydrolysis; type: biochemical; conditions: 37 °C, optimal pH 7.5; amide bond hydrolysis to ochratoxin alpha
T2 construct: mature form without signal peptide (forward primer encodes Met-Ala-Ile-Asp-Val)
T2 sequence (P35150 28-382): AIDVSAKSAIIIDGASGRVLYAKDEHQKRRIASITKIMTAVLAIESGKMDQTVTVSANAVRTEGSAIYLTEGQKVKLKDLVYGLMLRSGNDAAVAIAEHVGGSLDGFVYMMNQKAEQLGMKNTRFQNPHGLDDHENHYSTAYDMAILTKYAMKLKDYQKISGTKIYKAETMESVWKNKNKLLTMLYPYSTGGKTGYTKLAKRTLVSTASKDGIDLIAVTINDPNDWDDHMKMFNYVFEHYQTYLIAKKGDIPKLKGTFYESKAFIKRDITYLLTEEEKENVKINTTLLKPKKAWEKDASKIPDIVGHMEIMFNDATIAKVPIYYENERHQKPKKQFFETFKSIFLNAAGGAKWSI

**Q.** `C[C@@H]1Cc2c(Cl)cc(C(=O)N[C@@H](Cc3ccccc3)C(=O)O)c(O)c2C(=O)O1` [Ochratoxin A, 7-carboxyl-5-chloro-8-hydroxyl-3,4-dihydro-3R-methyl-isocoumarin-7-L-β-phenylalanine] was tested. Which Km [1] did it give?
**A.** 6.79 µM

**Q.** And the Km [2]?
**A.** 2.82 µM
